IC50 and Ratio IC50 data for 13 compounds are collected here from ChEMBL document CHEMBL4706499, “PTG-0861: A novel HDAC6-selective inhibitor as a therapeutic strategy in acute myeloid leukaemia” (Eur J Med Chem, 2020).

Structures are written as SMILES. Some results are limits rather than exact numbers.

For one assay, the system named is MV4-11. Nature of the assay: Cytotoxicity against human MV4-11 cells measured after 72 hrs by spectrophotometer method. The assay is classed as functional, cell-based. As to conditions: MV4-11, 72 h.
A short description of assay [1]: Cytotoxicity against human MRC9 cells measured after 72 hrs by spectrophotometer method. Format: cell-based. As to conditions: MRC9, 72 h.
In assay [2] the target is T1, Protein deacetylase HDAC6 (Homo sapiens, UniProt Q9UBN7).
T1 sequence (Q9UBN7 whole entry): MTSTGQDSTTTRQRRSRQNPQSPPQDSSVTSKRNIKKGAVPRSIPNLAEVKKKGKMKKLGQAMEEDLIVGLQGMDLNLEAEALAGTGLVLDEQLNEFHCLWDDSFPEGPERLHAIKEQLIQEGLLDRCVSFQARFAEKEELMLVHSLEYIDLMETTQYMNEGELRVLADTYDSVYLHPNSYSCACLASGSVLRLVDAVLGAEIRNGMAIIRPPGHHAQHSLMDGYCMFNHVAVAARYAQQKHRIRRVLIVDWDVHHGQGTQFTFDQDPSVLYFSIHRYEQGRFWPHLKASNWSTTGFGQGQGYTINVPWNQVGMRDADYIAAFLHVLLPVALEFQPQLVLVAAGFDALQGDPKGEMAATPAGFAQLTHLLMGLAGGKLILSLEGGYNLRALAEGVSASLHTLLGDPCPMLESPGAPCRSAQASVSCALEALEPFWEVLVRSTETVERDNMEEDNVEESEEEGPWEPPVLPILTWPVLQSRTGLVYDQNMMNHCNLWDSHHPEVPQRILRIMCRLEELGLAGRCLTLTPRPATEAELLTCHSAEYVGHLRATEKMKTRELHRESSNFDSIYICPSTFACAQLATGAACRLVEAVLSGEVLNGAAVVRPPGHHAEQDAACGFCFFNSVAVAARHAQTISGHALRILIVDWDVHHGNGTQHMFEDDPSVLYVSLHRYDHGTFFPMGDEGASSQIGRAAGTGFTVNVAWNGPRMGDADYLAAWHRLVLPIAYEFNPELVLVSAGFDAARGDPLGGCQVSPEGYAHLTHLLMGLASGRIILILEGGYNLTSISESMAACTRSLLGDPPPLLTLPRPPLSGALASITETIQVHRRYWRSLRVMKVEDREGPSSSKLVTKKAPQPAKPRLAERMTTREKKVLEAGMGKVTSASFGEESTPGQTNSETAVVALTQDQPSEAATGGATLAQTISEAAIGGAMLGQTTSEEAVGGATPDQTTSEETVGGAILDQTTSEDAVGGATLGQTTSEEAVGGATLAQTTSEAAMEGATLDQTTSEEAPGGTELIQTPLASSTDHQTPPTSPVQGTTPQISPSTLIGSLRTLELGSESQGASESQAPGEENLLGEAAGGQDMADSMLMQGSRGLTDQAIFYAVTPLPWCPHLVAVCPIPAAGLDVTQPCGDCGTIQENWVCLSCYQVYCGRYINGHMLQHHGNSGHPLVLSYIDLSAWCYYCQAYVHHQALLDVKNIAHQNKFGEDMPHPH
Nature of the assay: Inhibition of recombinant full length human HDAC6 expressed in SF9 baculovirus using FAM- labelled acetylated peptide as substrate measured by Electrophoretic mobility shift assay. (A gel shift assay detects complexes by their altered migration in electrophoresis.)

Assay [3] is described as follows: Selectivity ratio of IC50 for full length recombinant human HDAC3 to IC50 for full length recombinant human HDAC6.
Another assay concerns the target Histone deacetylase 3 (Homo sapiens, UniProt O15379). Nature of the assay: Inhibition of recombinant full length human HDAC3 expressed in SF9 baculovirus using FAM- labelled acetylated peptide as substrate measured by Electrophoretic mobility shift assay.
In a further assay the target is T2, Histone deacetylase 8 (Homo sapiens, UniProt Q9BY41).
T2 sequence (Q9BY41 whole entry): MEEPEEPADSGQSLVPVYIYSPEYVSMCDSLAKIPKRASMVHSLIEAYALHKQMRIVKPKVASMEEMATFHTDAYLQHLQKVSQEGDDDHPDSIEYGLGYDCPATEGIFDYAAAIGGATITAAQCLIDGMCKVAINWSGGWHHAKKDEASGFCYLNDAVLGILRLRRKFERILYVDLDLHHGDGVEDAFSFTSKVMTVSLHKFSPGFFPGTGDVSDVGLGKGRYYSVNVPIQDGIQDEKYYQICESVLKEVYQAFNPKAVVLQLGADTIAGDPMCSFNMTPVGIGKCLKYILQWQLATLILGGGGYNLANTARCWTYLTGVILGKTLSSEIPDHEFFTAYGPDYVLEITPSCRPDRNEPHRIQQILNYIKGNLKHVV
Put plainly: Inhibition of recombinant full length human HDAC8 expressed in SF9 baculovirus using FAM- labelled acetylated peptide as substrate measured by Electrophoretic mobility shift assay.

In another assay the target is T3, Histone deacetylase 11 (Homo sapiens, UniProt Q96DB2).
T3 sequence (Q96DB2 whole entry): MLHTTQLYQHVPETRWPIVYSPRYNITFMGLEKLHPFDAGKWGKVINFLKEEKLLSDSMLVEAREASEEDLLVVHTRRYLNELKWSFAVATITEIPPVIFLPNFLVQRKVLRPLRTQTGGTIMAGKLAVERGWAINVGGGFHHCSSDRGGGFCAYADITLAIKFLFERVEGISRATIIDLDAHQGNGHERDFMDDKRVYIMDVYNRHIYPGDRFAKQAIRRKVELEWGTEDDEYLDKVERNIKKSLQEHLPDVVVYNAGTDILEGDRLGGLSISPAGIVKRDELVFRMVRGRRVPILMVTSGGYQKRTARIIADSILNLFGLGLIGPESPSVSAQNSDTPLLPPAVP
Put plainly: Inhibition of recombinant full length human HDAC11 expressed in SF9 baculovirus using FAM- labelled acetylated peptide as substrate measured by Electrophoretic mobility shift assay.

Chain of Histone deacetylase 3 (O15379 whole entry): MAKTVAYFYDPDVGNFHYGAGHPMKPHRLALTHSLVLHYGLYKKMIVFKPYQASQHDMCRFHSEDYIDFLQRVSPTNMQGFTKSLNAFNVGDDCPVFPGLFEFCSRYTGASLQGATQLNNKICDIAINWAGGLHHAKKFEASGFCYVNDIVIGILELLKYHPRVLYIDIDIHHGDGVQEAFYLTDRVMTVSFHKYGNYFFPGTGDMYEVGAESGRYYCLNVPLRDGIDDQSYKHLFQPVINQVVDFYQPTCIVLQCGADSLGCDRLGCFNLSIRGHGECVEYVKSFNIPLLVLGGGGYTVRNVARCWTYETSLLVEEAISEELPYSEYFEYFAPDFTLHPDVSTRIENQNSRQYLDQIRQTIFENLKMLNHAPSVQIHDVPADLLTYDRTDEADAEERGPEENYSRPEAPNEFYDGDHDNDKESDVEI

For orientation: IC50 means the concentration at which inhibition is half-maximal. In the case of `O=C(/C=C/c1ccc(CN(C(=O)c2c(F)c(F)c(F)c(F)c2F)C2CC2)cc1)NO`, the half-maximal inhibitory concentration (IC50) in the assay with MV4-11 was 760 nM; in assay [1] it was more than 25000 nM; in assay [2], 12 nM; on Histone deacetylase 3 it was 70 nM; at Histone deacetylase 8, 420 nM; on Histone deacetylase 11, more than 1000 nM. Besides, in assay [3], the Ratio IC50 turned out to be 5.83.

Turning to `CC(C)(C)c1ccc(NC(=O)c2ccc(C(=O)NO)cc2)cc1`, the IC50 is 1440 nM in the assay on MV4-11; more than 25000 nM in assay [1]; 10.4 nM in assay [2]; 10.9 nM at Histone deacetylase 3; 43.9 nM on Histone deacetylase 8; 447 nM on Histone deacetylase 11. Besides, the Ratio IC50 in assay [3] is 1.05.

As for `O=C(NO)c1ccc(NC(=O)c2ccc(N3CCOCC3)cc2)cc1`, the IC50 in the assay with MV4-11 is 17100 nM; in assay [1], more than 50000 nM; in assay [2] it was 96.6 nM; at Histone deacetylase 3 it was more than 1000 nM; at Histone deacetylase 8, 921 nM; on Histone deacetylase 11, more than 1000 nM. In assay [3], the Ratio IC50 was more than 9.53.

Take `O=C(NO)c1ccc(NC(=O)c2c(F)c(F)c(F)c(F)c2F)cc1`: the IC50 in the assay with MV4-11 is 1510 nM; in assay [1] it was more than 25000 nM; in assay [2], 1.46 nM; on Histone deacetylase 3, 3.13 nM; on Histone deacetylase 8, 14 nM; on Histone deacetylase 11, 700 nM. The Ratio IC50 in assay [3] is 2.14.

For `CC(C)(C)c1ccc(NS(=O)(=O)c2ccc(C(=O)NO)cc2)cc1`, the IC50 in the assay with MV4-11 is 7160 nM; in assay [1], more than 50000 nM; in assay [2], 17.5 nM; at Histone deacetylase 3 it was 34.4 nM; on Histone deacetylase 8, 9.4 nM; at Histone deacetylase 11, 223 nM.

`CC(C)(C)c1ccc(S(=O)(=O)NCc2ccc(C(=O)NO)cc2)cc1`: the IC50 with MV4-11 is 5030 nM; in assay [1], more than 25000 nM; in assay [2] it was 41.9 nM; at Histone deacetylase 3 it was 297 nM; at Histone deacetylase 8, 622 nM; on Histone deacetylase 11, more than 1000 nM. Also, in assay [3], the Ratio IC50 came to 7.09.

Consider `O=C(NO)c1ccc(NC(=O)c2ccc(C3CC3)cc2)cc1`, for which the IC50 is 1080 nM in the assay on MV4-11; more than 25000 nM in assay [1]; 2.81 nM in assay [2]; 11.9 nM at Histone deacetylase 3; 20.4 nM on Histone deacetylase 8; 704 nM on Histone deacetylase 11. Further, the Ratio IC50 in assay [3] amounted to 4.23.

For `CC(C)(C)c1ccc(CC(=O)Nc2ccc(C(=O)NO)cc2)cc1`, the IC50 with MV4-11 is 340 nM; in assay [1], more than 15000 nM; in assay [2] it was 13 nM; at Histone deacetylase 3, 3.74 nM; on Histone deacetylase 8 it was 74.3 nM; at Histone deacetylase 11, more than 1000 nM.

Take `O=C(/C=C/c1ccc(CNC(=O)c2c(F)c(F)c(F)c(F)c2F)cc1)NO`: the IC50 was 320 nM in the assay with MV4-11; more than 25000 nM in assay [1]; 14 nM in assay [2]; 13 nM on Histone deacetylase 3; 283 nM at Histone deacetylase 8; more than 1000 nM on Histone deacetylase 11.

For the compound `CC(C)(C)c1ccc(S(=O)(=O)Nc2ccc(C(=O)NO)cc2)cc1`, the IC50 is 1180 nM in the assay with MV4-11; more than 25000 nM in assay [1]; 2.01 nM in assay [2]; 2.25 nM at Histone deacetylase 3; 13.3 nM on Histone deacetylase 8; 44.2 nM on Histone deacetylase 11. Besides, the Ratio IC50 in assay [3] came to 1.12.

Turning to `CC(C)(C)c1ccc(C(=O)NCc2ccc(C(=O)NO)cc2)cc1`, the IC50 is 570 nM with MV4-11; more than 25000 nM in assay [1]; 32.4 nM in assay [2]; 15.2 nM on Histone deacetylase 3; 162 nM at Histone deacetylase 8; more than 1000 nM on Histone deacetylase 11.

Take `CC(C)(C)c1cccc(C(=O)Nc2ccc(C(=O)NO)cc2)c1`: the IC50 in the assay with MV4-11 was 3880 nM; in assay [1], more than 25000 nM.

Regarding `CCN(C(=O)c1ccc(C(C)(C)C)cc1)c1ccc(C(=O)NO)cc1`, the IC50 in the assay on MV4-11 was 8230 nM; in assay [1], more than 25000 nM; in assay [2] it was more than 1000 nM; on Histone deacetylase 3, more than 1000 nM; at Histone deacetylase 8, 281 nM; at Histone deacetylase 11, more than 1000 nM.
